Here are results for nine substances from paper PMC5677370, “Structure-based nuclear import mechanism of histones H3 and H4 mediated by Kap123” (eLife, 2017).

For one assay, the system named is wild-type Kl Kap123. The assay is described as follows: SPR binding of wild-type or mutant H3_1–35-/H4_1–21-NLS peptides to immobilized wild-type Kap123. The conditions noted are these: 10 mM HEPES, 150 mM NaCl, 7°C, relative to wild-type; for affinity of mutant H3-NLS toward Kap123: wild-type Kap123 immobilized 7500 RU on CM5, H3_1–35-NLS peptides 0-5 μM. Also noted: species or system Kluyveromyces lactis. On the procedure:
Figure 5. Surface plasmon resonance analysis of wild-type Kl Kap123 in the presence of wild-type or mutants of H3_1–35-/H4_1–21-NLSs. The biacore diagrams (a) and the normalized bar graph (c) of wild-type Kap123 in the presence of wild-type or mutant H3_1-35-NLS. The wild-type Kap123 was immobilized on a CM5 chip with 7500 RU and the wild-type or mutant H3_1–35-NLS peptides (H3_K14A, H3_K14Q, H3_K23A, H3_K23Q, or H3_K14Q/K23Q) were injected at different concentrations (0, 0.07, 0.15, 0.32, 0.65, 1.25, 2.5, and 5 μM). The biacore diagrams (b) and the bar graph (d) of wild-type Kap123 in the presence of wild-type or mutant H4_1–21-NLS. The wild-type Kap123 was immobilized on a CM5 chip with 7116 RU and the wild-type or mutant H4_1–21-NLS peptides (H4_K16A or H4_K5Q/K12Q) were injected at different concentrations (0, 0.32, 0.62, 1.25, 2.5, 5, and 10 μM). The H4K16Q peptide was used at different concentrations (0, 0.7, 1.5, 3, 6, 12, and 25 uM). See details in Materials and method section. Red-colored sensorgrams represent positive controls of wild-type Kap123, which were injected 2000 nM wild-type Kap123 before and after sample injection (a–b). The relative binding between wild-type Kap123 and mutant peptides was measured at five different concentrations for generating error bars (c–e). (e) The normalized affinity bar graph of H3-/H4-NLS toward wild-type Kap123 was derived from (a) and (b).
A CM5 chip (GE healthcare) was coated with streptavidin in 10 mM acetate pH 4.5 at a flow rate of 5 μl/min. The biotinylated C-terminal histone H3 peptide (residues 1–35) was synthesized (Anygen, South Korea) and immobilized on the CM5 chip coated with streptavidin with a flow rate of 5 μl/min in the binding buffer (10 mM HEPES, 150 mM NaCl). Various concentrations of the wild-type and mutant Kl Kap123 protein (see figure legends of Figures 3 and 4) were prepared in the binding buffer with 2 mM TCEP and then injected at the flow rate of 30 μl/min in the binding buffer using a T200 instrument (GE Healthcare) at 7°C. After injecting the sample, the chip was regenerated by a regeneration buffer (1 M NaCl and 20 mM NaOH in binding buffer) at a flow rate of 30 μl/min. For measuring the interaction of wild-type Kl Kap123 and mutant histone H3 or H4 peptides, 0.1 μM Kap123 diluted in10mM acetate pH 4.0 was immobilized 7100 RU on the CM5 chip at flow rate of 5 μl/min. Peptides of histone H3 or H4 mutants were injected at a flow rate of 30 μl/min in the binding buffer and the binding was monitored at various concentrations (0, 0.31, 0.62, 1.25, 2.5, 5 and 10 uM) at 7°C. For the H4K16Q peptide, Kap 123 was immobilized with 5100 RU on CM5 chip, and H4K16Q and wild-type H4 peptides (0, 0.7, 1.5, 3, 6, 12 and 25 uM) were injected as analytes at a flow rate of 30 μl/min at 7°C.
In general terms: In SPR one partner is held on a chip, and binding of the other changes the refractive index at the surface.

The next assay has as its target Kapβ2. The conditions noted are these: ref Soniat et al., 2016; read-out: KD of Kapβ2-H3_1–47-NLS interaction; cited from earlier work. The text has this:
Accumulated evidence illustrates that cytosolic histones H3 and H4 are acetylated prior to nuclear import and believed to play a role in the translocation process mediated by Kap123 ([Sobel et al., 1994]; [Sobel et al., 1995]; [Loyola et al., 2006]; [Jasencakova et al., 2010]; [Ma et al., 1998]; [Blackwell et al., 2007]; [Kuo et al., 1996]).

For a further assay, the system named is Kap123-H3-NLS. Nature of the assay: Competition pull-down: pre-assembled MBP-Kap123-H3-NLS challenged by H4-NLS. In kind it is binding. The conditions noted are these: amylose affinity pull-down, MBP-tagged Kap123 pre-assembled with H3_1–59-Sumo, challenged by H4_1–48-Sumo (wild-type or mutant) 0x, 1x, 2x, 5x, 10x; 30 mM Tris–HCl pH 8.0, 50 mM NaCl, 1 mM DTT, 0.01% NP-40; 90 mins at 4°C; three independent assays. Here is the method:
Figure 6. Competition assay of H3- and H4-NLSs (wild-type H4 and mutant H4^K5Q/K12Q) toward Kap123 association. Competition of H3_1–59- and H4_1–48-Sumo (a) as well as H3_1–59- and H4_1–48 ^K5Q/K12Q-Sumo (b) toward Kap123 binding was monitored by amylose affinity pull-downs using MBP-tagged Kap123. A fixed amount of the pre-assembled complex of MBP-tagged Kap123 and H4_1–48-Sumo was challenged by an increasing amount of H3_1–59-Sumo. The same competition assay was done by using pre-incubated MBP-tagged Kap123-H3_1–59-Sumo and gradually increasing the amount of H4_1–48-Sumo either with wild-type (a) or mutant (b), K5Q/K12Q) H4 sequence. (c–d) The normalized bar graphs of remaining H3_1–59- and H4_1–48-NLS-Sumo after challenged with increased amounts of H4_1–48- and H3_1–59-NLS-Sumo (0x, 1x, 2x, 5x, and 10x) toward Kap123, respectively. Either H4_1–48-NLS-Sumo (c) or H4_1–48^K5Q/K12Q-NLS-Sumo (d) was used for the H3_1–59-NLS-Sumo competition. Three independent competition assays were carried out and the band intensity was measured to calculate the error bar. Figure 6—figure supplement 1. […] (a) Competition of H3_1–59-Sumo using either H4_1–48-Sumo or H4_1–48 ^K5Q/K8Q/K12Q-Sumo toward Kap123 binding was monitored by amylose affinity pull-downs using MBP-tagged Kap123. […] Three independent competition assays were carried out and the band intensity was measured to calculate the error bar. […]

Assay [1] has as its system nuclear translocation of the H4-NLS-GFP reporter. Particulars: GFP reporter assay; ref Blackwell et al., 2007; cited from earlier work.

For H3 K14A, in the assay with wild-type Kl Kap123 (five concentrations), the “affinity of mutant H3-NLS toward Kap123” value is listed as “decreased the affinity toward Kap123”.

With H3 K14Q, the “affinity of mutant H3-NLS toward Kap123” value in the assay with wild-type Kl Kap123 (five concentrations) is given as “decreased the affinity toward Kap123”. The same measure, in the same setting: next, H3 K23A: “decreased the affinity toward Kap123”; H3 K23Q: “decreased the affinity toward Kap123”.

“H3_1–47-NLS: histone H3 residues 1–47 NLS bound to Kapβ2”: the Kd at Kapβ2 is 77.1 nM. As for “H4-NLS^K5Q/K8Q/K12Q: tri-acetylation mimic mutant of H4-NLS (H4_1–48-Sumo in competition assay)”, the “competition with H3-NLS for Kap123” value in the assay on Kap123-H3-NLS was “no longer competed with H3-NLS in Kap123 interaction”. For the same substance, in assay [1], the “nuclear translocation of H4-NLS-GFP reporter, acetylation mimic” value is on record as “dramatically reduced the nuclear translocation”. Take H4-NLS^K16A: the “affinity of mutant H4-NLS toward Kap123” value in the assay with wild-type Kl Kap123 (wild-type Kap123 immobilized 7116 RU on CM5, H4_1–21-NLS peptides 0-10 μM, five concentrations) is listed as “reduced the affinity toward Kap123 although the effect was mild”.

Turning to H4-NLS^K16Q, in the assay on wild-type Kl Kap123 (Kap123 immobilized 5100 RU on CM5, H4K16Q 0-25 uM), the “affinity of H4 K16Q toward Kap123” value is listed as “reduced the affinity toward Kap123 although the effect was mild”.

On to “H4_1–48^K5Q/K12Q-Sumo: C-terminal Sumo-tagged histone H4_1–48, K5Q/K12Q”, for which, in the assay on Kap123-H3-NLS, the “competition with H3-NLS for Kap123” value is listed as “loss of competition”.

In general, Kd refers to a measure of binding affinity in units of concentration.
